Laboratory results: patent publication US20220213092A1, “BICYCLIC PYRAZOLE BRUTON'S TYROSINE KINASE INHIBITORS” (AbbVie Inc., priority 2020, published 2022)

What was measured:
BTK = target: T1, BTK (Homo sapiens, UniProt Q06187); assay: BTK kinase electrophoretic mobility shift assay (MSA); type: biochemical; details: 50 μM ATP, 0.5 nM BTK enzyme (Nanosyn-293HEK, WT), 3 hours at 25° C.; all examples except 50, 51, 62 and 63; read-out: BTK IC50
T1 construct: purchased Nanosyn, Santa Clara, Calif; host or cells: 293HEK
T1 sequence (Q06187 whole entry): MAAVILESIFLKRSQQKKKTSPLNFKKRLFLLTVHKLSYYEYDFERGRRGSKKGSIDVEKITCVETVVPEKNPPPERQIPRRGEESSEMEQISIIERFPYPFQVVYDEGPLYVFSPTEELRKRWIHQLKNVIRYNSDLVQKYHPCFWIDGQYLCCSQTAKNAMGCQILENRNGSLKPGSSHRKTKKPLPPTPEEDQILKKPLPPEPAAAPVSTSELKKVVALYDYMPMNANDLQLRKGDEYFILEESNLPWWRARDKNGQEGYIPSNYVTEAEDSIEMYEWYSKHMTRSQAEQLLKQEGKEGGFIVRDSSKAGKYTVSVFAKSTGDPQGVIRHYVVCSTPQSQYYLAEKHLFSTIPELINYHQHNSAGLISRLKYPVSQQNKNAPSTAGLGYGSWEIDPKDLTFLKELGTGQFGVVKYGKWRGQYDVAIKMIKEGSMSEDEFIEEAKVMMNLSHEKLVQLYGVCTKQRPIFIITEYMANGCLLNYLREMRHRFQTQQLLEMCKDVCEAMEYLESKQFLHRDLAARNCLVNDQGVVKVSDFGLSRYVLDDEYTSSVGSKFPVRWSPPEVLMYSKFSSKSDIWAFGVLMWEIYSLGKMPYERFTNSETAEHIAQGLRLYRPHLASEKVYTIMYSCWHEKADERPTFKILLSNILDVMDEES
Procedure: Kinase activity, unless otherwise indicated, was measured in vitro using an electrophoretic mobility shift assay (MSA). The phosphorylation of a peptide substrate by BTK and other kinases was measured. The kinase reactions were assembled in a total volume of 25 μL per well in 384 well plates. The following was added to each well: compound buffer (or control); enzyme buffer; and substrate buffer, as further described below.
The terminated reactions were analyzed using a 12 channel LABCHIP® 3000 microfluidic detection instrument (available from Caliper Life Sciences, Waltham, Mass.). […] Change in the relative fluorescence intensity of the substrate and product peaks was the parameter measured, reflecting enzyme activity. In the presence of an inhibitor, the ratio between product and substrate was altered. The signal of the product decreased, while the signal of the substrate increased. Capillary electrophoregrams (RDA acquisition files) were analyzed using HTS Well Analyzer software (available from Caliper Life Sciences, Waltham, Mass.).
Activity in each sample was determined as the product to sum ratio (PSR): P/(S+P), where P was the peak height of the product peptide and S was the peak height of the substrate peptide. For each compound, enzyme activity was measured at various concentrations (12 concentrations of compound spaced by 3× dilution intervals). Negative control samples (00 inhibition in the absence of inhibitor) and positive control samples (10000 inhibition, in the presence of 20 mM EDTA) were assembled in replicates of four and were used to calculate 00 inhibition values for each inhibitor at each concentration. Percent inhibition (Pinh) was determined using following equation: Pinh=(PSR0%−PSRinh)/(PSR0%−PSR100%)*100, where PSRinh was the product sum ratio in the presence of inhibitor, PSR0% was the average product sum ratio in the absence of inhibitor and PSR100% was the average product sum ratio in 100%−inhibition control samples.
The IC50 values of inhibitors were determined by 4 parameter sigmoidal dose response model fitting of the inhibition curves (Pinh versus inhibitor concentration) using XLfit® 4 software (available from IDBS, Boston, Mass.).

[1] = target: T2, Phosphorylation of Y223 of BTK (Homo sapiens, UniProt Q06187); assay: Whole blood compound screening, phosphorylation of Y223 site of BTK (MSD assay); type: cell-based; details: healthy human whole blood, 2 hours at 37° C., 3 separate donors; read-out: WB BTK-pY223 EC50
T2 construct: host or cells: healthy human whole blood, 3 donors
T2 sequence (Q06187 whole entry): as above
Procedure: Healthy human whole blood (WB) was collected from […]™ Technologies or […]® in sodium heparinized tubes. Whole blood was stored at ambient temperature to avoid coagulation. Each compound was tested in 3 separate donors. Compound stock solutions (10 mM) were used to generate dose titration (8 concentrations, starting concentration 10 μM, 1:4 dilution) in appropriate volume of dimethyl sulfoxide (0.2%). Whole blood was incubated with compounds in 96-well plates for 2 hours in tissue culture incubators at 37° C. under a 5% CO2 atmosphere. The whole blood was lysed in equal volume of lysis buffer (Cell Signaling Technology®, Danvers, Mass.) containing complete protease inhibitor tablet, PhosSTOP™ tablet, sodium orthovanadate and sodium fluoride and phenylmethanesulfonyl fluoride solution. The lysed whole blood was then frozen at −80° C. for overnight.
Phosphorylation of Y223 of BTK was measured using an MSD assay (Meso Scale Diagnostics, LLC, Rockville, Md.). The thawed lysed whole blood was incubated with the capturing antibody rabbit anti-human BTK (D3H5) (Cell Signaling Technology, Danvers, Mass.) at 4° C. overnight. After washing out the unbound samples, the detection antibody biotinylated rabbit anti-pY223-BTK(D9T6H) (Cell Signaling Technology®, Danvers, Mass.) was added to the plates. After washing out the unbound antibodies, SULFO-TAG Streptavidin (Meso Scale Diagnostics, LLC, Rockville, Md.) was used for detection on Meso Sector S600 (Meso Scale Diagnostics, LLC, Rockville, Md.).
The EC50 values were determined using software from Dotmatics. The activity of exemplary compounds is illustrated below.

IC50 (BTK) [nM] | EC50 [1] [nM] | Structure (SMILES)
65.7 | 1820 | C=CC(=O)N1C[C@@H]2CN(C3CCNc4c3nn(-c3ccc(Oc5ccccc5)cc3)c4C(N)=O)C[C@@H]2C1 (mixture of isomers) [Example 66, 2-(4-phenoxyphenyl)-7-[rac-(3aR,6aS)-5-(prop-2-enoyl)hexahydropyrrolo[3,4-c]pyrrol-2(1H)-yl]-4,5,6,7-tetrahydro-2H-pyrazolo[4,3-b]pyridine-3-carboxamide]
0.993 | 40.7 | C=CC(=O)N1CCN(C2CCNc3c2nn(-c2ccc(Oc4ccccc4)cc2)c3C(N)=O)CC1 (stereo not shown) [Example 3, 2-(4-phenoxyphenyl)-7-[4-(prop-2-enoyl)piperazin-1-yl]-4,5,6,7-tetrahydro-2H-pyrazolo[4,3-b]pyridine-3-carboxamide]
0.331 | 35.7 | C=CC(=O)N1CCC([C@H]2CCNc3c2nn(-c2ccc(Oc4ccccc4)cc2)c3C(N)=O)CC1 [Example 4, (7R)-2-(4-phenoxyphenyl)-7-[1-(prop-2-enoyl)piperidin-4-yl]-4,5,6,7-tetrahydro-2H-pyrazolo[4,3-b]pyridine-3-carboxamide]
0.495 | 32.9 | C=CC(=O)N1CCC(C2CCNc3c2nn(-c2ccc(Oc4cccc(F)c4)cc2)c3C(N)=O)CC1 (stereo not shown) [Example 12, 2-[4-(3-fluorophenoxy)phenyl]-7-[1-(prop-2-enoyl)piperidin-4-yl]-4,5,6,7-tetrahydro-2H-pyrazolo[4,3-b]pyridine-3-carboxamide]
0.684 | 55.6 | C=CC(=O)N1CCC(C2CCNc3c2nn(-c2ccc(Oc4cccc(OC)c4)cc2)c3C(N)=O)CC1 (stereo not shown) [Example 15, 2-[4-(3-methoxyphenoxy)phenyl]-7-[1-(prop-2-enoyl)piperidin-4-yl]-4,5,6,7-tetrahydro-2H-pyrazolo[4,3-b]pyridine-3-carboxamide]
0.592 | 18.3 | C=CC(=O)N1CCC(N2CCNc3c2nn(-c2ccc(Oc4ccccc4)cc2)c3C(N)=O)CC1 [Example 16, 2-(4-phenoxyphenyl)-7-[1-(prop-2-enoyl)piperidin-4-yl]-4,5,6,7-tetrahydro-2H-pyrazolo[3,4-b]pyrazine-3-carboxamide]
1.11 | 38.2 | C=CC(=O)N1CC(N2CCNc3c2nn(-c2ccc(Oc4ccccc4)cc2)c3C(N)=O)C1 [Example 22, 2-(4-phenoxyphenyl)-7-[1-(prop-2-enoyl)azetidin-3-yl]-4,5,6,7-tetrahydro-2H-pyrazolo[3,4-b]pyrazine-3-carboxamide]
0.735 | 92.9 | C=CC(=O)N1CCC(C2CCNc3c2nn(-c2ccc(Oc4cccc(C)c4)cc2)c3C(N)=O)CC1 (stereo not shown) [Example 24, 2-[4-(3-methylphenoxy)phenyl]-7-[1-(prop-2-enoyl)piperidin-4-yl]-4,5,6,7-tetrahydro-2H-pyrazolo[4,3-b]pyridine-3-carboxamide]
1.05 | 45.3 | C=CC(=O)N1CCC([C@H]2CCNc3c2nn(-c2ccc(Oc4ccc(F)cc4F)cc2)c3C(N)=O)CC1 [Example 30, (7R)-2-[4-(2,4-difluorophenoxy)phenyl]-7-[1-(prop-2-enoyl)piperidin-4-yl]-4,5,6,7-tetrahydro-2H-pyrazolo[4,3-b]pyridine-3-carboxamide]
0.884 | 128 | C=CC(=O)N1[C@@H]2CC[C@H]1CN(C1CCNc3c1nn(-c1ccc(Oc4ccccc4)cc1)c3C(N)=O)C2 (stereo partly drawn) [Example 35, 2-(4-phenoxyphenyl)-7-[(1R,5S)-8-(prop-2-enoyl)-3,8-diazabicyclo[3.2.1]octan-3-yl]-4,5,6,7-tetrahydro-2H-pyrazolo[4,3-b]pyridine-3-carboxamide]
1.17 | 62.5 | C=CC(=O)N1CCN(C2CCNc3c2nn(-c2ccc(Oc4ccccc4)cc2)c3C(N)=O)C[C@@H]1C (stereo partly drawn) [Example 43, 7-[(3S)-3-methyl-4-(prop-2-enoyl)piperazin-1-yl]-2-(4-phenoxyphenyl)-4,5,6,7-tetrahydro-2H-pyrazolo[4,3-b]pyridine-3-carboxamide]
15.4 | 158 | C=CC(=O)N1CCN([C@@H]2CCNc3c2nn(-c2ccc(Oc4ccc(O)cc4)cc2)c3C(N)=O)CC1 [Example 44, (7R)-2-[4-(4-hydroxyphenoxy)phenyl]-7-[4-(prop-2-enoyl)piperazin-1-yl]-4,5,6,7-tetrahydro-2H-pyrazolo[4,3-b]pyridine-3-carboxamide]
1.2 | 71.8 | C=CC(=O)N1CCN(C2CCNc3c2nn(-c2ccc(Oc4ccccc4)cc2)c3C(N)=O)CC12CC2 (stereo not shown) [Example 53, 2-(4-phenoxyphenyl)-7-[4-(prop-2-enoyl)-4,7-diazaspiro[2.5]octan-7-yl]-4,5,6,7-tetrahydro-2H-pyrazolo[4,3-b]pyridine-3-carboxamide]
1.19 | 76.7 | C=CC(=O)N1CCN(C2CCNc3c2nn(-c2ccc(Oc4ccccc4C(F)(F)F)cc2)c3C(N)=O)CC1 (stereo not shown) [Example 54, 7-[4-(prop-2-enoyl)piperazin-1-yl]-2-{4-[2-(trifluoromethyl)phenoxy]phenyl}-4,5,6,7-tetrahydro-2H-pyrazolo[4,3-b]pyridine-3-carboxamide]
1.76 | 85.9 | C=CC(=O)N1CCN(C2CCNc3c2nn(-c2ccc(Oc4cccc(F)c4)cc2)c3C(N)=O)CC1 (stereo not shown) [Example 57, 2-[4-(3-fluorophenoxy)phenyl]-7-[4-(prop-2-enoyl)piperazin-1-yl]-4,5,6,7-tetrahydro-2H-pyrazolo[4,3-b]pyridine-3-carboxamide]
1.42 | 83.4 | C=CC(=O)N1CCN([C@@H]2CCNc3c2nn(-c2ccc(Oc4ccccc4C(F)(F)F)cc2)c3C(N)=O)CC1 [Example 60, (7R)-7-[4-(prop-2-enoyl)piperazin-1-yl]-2-{4-[2-(trifluoromethyl)phenoxy]phenyl}-4,5,6,7-tetrahydro-2H-pyrazolo[4,3-b]pyridine-3-carboxamide]
5.58 | 75 | C=CC(=O)N1CCN([C@@H]2CCNc3c2nn(-c2ccc(Oc4cccc(C#N)c4)cc2)c3C(N)=O)CC1 [Example 64, (7R)-2-[4-(3-cyanophenoxy)phenyl]-7-[4-(prop-2-enoyl)piperazin-1-yl]-4,5,6,7-tetrahydro-2H-pyrazolo[4,3-b]pyridine-3-carboxamide]
0.953 | 34.2 | C=CC(=O)N1CCN([C@@H]2CCNc3c2nn(-c2ccc(Oc4cccc(C(F)(F)F)c4)cc2)c3C(N)=O)CC1 [Example 65, (7R)-7-[4-(prop-2-enoyl)piperazin-1-yl]-2-{4-[3-(trifluoromethyl)phenoxy]phenyl}-4,5,6,7-tetrahydro-2H-pyrazolo[4,3-b]pyridine-3-carboxamide]
0.737 | 18.8 | C=CC(=O)N1CCN([C@@H]2CCNc3c2nn(-c2ccc(Oc4cccc(F)c4)cc2)c3C(N)=O)CC1 [Example 67, (7R)-2-[4-(3-fluorophenoxy)phenyl]-7-[4-(prop-2-enoyl)piperazin-1-yl]-4,5,6,7-tetrahydro-2H-pyrazolo[4,3-b]pyridine-3-carboxamide]
3.18 | 96.2 | C=CC(=O)N1CCN([C@@H]2CCNc3c2nn(-c2ccc(Oc4ccccc4C4CC4)cc2)c3C(N)=O)CC1 [Example 68, (7R)-2-[4-(2-cyclopropylphenoxy)phenyl]-7-[4-(prop-2-enoyl)piperazin-1-yl]-4,5,6,7-tetrahydro-2H-pyrazolo[4,3-b]pyridine-3-carboxamide]
